# Results published in patent US20240123249A1, “ANALGESIA VIA LOW AND ULTRA-LOW FREQUENCY MAGNETIC OR ELECTROMAGNETIC FIELDS AND RELATED SYSTEMS AND METHODS” (EMulate Therapeutics, Inc., priority 2022, published 2024).
# Key:
# mechanical hyperalgesia = test: Carrageenan induced mechanical hyperalgesia, paw pressure test (Randall & Selitto); format: in vivo, rat
# cold allodynia = test: Oxaliplatin induced neuropathic cold allodynia, paw immersion test; settings: rat, in vivo
# tactile allodynia = test: Bennett model of peripheral mononeuropathy, tactile allodynia by electronic Von Frey; format: in vivo, rat
# [1] = 30 minutes after morphine 3 mg/kg / 24 hours after signal exposure
# [2] = pair-wise Students T-test, α=0.01
smiles,measurement,setting,value
COc1ccc2c(c1)c(CC(=O)O)c(C)n2C(=O)c1ccc(Cl)cc1 [Indomethacin],"applied pressure, carrageenan injected (injured) paw","mechanical hyperalgesia; 3 h after 2% carrageenan, signals 24 h exposure, Indomethacin 30 mg/kg, MC 1% group 218±18",306±21 grams
same,"Carrageenan: statistical significance (P) versus MC 1% group, injured paw","mechanical hyperalgesia; Dunnett's test after ANOVA, N=10",0.01
same,"Carrageenan model: significance versus MC 1% group, uninjured paw","mechanical hyperalgesia; left paw not injected with carrageenan, Dunnett's test","no significant differences between groups in the uninjured paws, except in the Indomethacin injected group"
CNCC[C@H](Oc1cccc2ccccc12)c1cccs1 [duloxetine],Oxaliplatin: statistical significance (P) versus MC 1% control group,cold allodynia,significantly increased
same,leg withdrawal time (latency of hind paw withdrawal),cold allodynia,13.2 ± 1.6 s
CN1CC[C@]23c4c5ccc(O)c4O[C@H]2[C@@H](O)C=C[C@H]3[C@H]1C5 [morphine],"average force applied, control paw, Post-Tx",tactile allodynia; [1],578±73 grams
same,"average force applied, injured paw, Post-Tx",tactile allodynia; [1],438±51 grams
same,"average force applied, control paw, Pre-Tx",tactile allodynia; before treatment,300±30 grams
same,"average force applied, injured paw, Pre-Tx",tactile allodynia; before treatment,180±27 grams
same,"Bennett: statistical significance (P) Pre-Tx vs. Post-Tx, Control Paw",tactile allodynia; [2],< 0.00001
same,"Bennett: statistical significance (P) Pre-Tx vs. Post-Tx, Injured Paw",tactile allodynia; [2],reached statistical significance
